Reference: ChEMBL document CHEMBL1201862, “PubChem BioAssay data set” (2004)
The source made the active and inactive calls.

Legend:
[1] = SAR analysis of small molecule activators of Apaf-1 using a LZ-Caspase-9/Caspase-3 Fluorescent Selectivity assay - Set 2.; type: functional; conditions: read-out: EC50_Mean
[2] = biological target: T1, Apoptotic protease-activating factor 1 (Homo sapiens, UniProt O14727); test: SAR analysis of small molecule Activators of Apaf-1 in a Fluorescent assay.; type: functional; conditions: read-out: EC50_Mean
T1 sequence (O14727 whole entry): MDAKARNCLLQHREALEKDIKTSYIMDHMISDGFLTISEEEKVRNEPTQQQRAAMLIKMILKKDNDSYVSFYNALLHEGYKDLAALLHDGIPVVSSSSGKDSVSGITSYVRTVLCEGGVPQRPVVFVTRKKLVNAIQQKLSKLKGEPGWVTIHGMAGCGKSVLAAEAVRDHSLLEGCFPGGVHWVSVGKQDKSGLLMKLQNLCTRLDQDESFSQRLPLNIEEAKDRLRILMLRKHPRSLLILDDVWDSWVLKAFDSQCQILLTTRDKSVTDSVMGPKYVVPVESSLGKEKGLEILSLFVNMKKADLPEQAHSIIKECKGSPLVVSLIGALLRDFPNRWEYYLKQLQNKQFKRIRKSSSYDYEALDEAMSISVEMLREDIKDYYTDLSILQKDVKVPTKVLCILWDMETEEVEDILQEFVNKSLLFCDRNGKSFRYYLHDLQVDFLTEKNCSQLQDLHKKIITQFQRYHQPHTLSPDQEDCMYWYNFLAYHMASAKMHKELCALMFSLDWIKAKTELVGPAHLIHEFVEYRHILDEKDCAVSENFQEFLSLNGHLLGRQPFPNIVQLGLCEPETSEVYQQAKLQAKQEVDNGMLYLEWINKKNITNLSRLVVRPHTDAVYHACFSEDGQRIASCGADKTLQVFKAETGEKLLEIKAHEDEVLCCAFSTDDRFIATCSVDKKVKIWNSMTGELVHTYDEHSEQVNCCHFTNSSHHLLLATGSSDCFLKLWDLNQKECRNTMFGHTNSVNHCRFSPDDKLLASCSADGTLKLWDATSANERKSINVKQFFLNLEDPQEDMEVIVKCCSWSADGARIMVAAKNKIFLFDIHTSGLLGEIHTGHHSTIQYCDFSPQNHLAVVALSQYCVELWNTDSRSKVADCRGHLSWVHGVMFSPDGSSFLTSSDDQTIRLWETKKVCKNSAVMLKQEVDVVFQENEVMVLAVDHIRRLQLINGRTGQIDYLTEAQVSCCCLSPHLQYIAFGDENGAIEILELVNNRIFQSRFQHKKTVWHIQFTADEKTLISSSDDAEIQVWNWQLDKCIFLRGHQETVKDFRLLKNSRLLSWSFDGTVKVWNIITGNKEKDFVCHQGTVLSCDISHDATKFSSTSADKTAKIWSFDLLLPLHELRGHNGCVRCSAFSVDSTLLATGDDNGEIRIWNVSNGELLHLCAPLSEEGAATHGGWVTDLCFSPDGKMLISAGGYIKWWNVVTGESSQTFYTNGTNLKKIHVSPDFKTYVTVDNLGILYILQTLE

[3] = biological target: T1, Apoptotic protease-activating factor 1; test: SAR analysis of small molecule Activators of Apaf-1 in a Fluorescent assay - set 2.; type: functional; conditions: read-out: EC50_Mean
[4] = biological target: Protein kinase C theta type (Homo sapiens, UniProt Q04759); test: Navigating the Kinome. Panel member name: PRKCQ; type: functional
[5] = biological target: ALK tyrosine kinase receptor (Homo sapiens, UniProt Q9UM73); type: functional;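 note: ALK tested as one member of a kinase panel screen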
[6] = biological target: Death-associated protein kinase 3 (Homo sapiens, UniProt O43293); type: functional;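 note: measured as one member of a kinome-wide profiling panel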
[7] = biological target: T2, Aurora kinase A (Homo sapiens, UniProt O14965); type: functional;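 note: value from the Navigating the Kinome kinase panel profiling, panel entry STK6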
T2 sequence (O14965 whole entry): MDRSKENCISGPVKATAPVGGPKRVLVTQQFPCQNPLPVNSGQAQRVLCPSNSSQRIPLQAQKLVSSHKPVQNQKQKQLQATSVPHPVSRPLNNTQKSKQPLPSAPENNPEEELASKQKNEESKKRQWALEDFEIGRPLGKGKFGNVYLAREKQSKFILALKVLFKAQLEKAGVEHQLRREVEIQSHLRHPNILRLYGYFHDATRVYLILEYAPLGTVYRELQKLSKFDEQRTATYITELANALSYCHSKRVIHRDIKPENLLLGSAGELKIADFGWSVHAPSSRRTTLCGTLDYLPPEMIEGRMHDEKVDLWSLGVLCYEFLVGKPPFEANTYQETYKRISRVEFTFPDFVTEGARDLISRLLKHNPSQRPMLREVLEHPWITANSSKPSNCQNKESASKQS

[8] = biological target: LIM domain kinase 1 (Homo sapiens, UniProt P53667); test: Navigating the Kinome. Panel member name: LIMK1; type: functional
[9] = biological target: Platelet-derived growth factor receptor beta (Homo sapiens, UniProt P09619); type: functional;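 note: value comes from a kinome panel, with PDGFRB tested as one panel member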
[10] = biological target: T3, Serine/threonine-protein kinase Chk1 (Homo sapiens, UniProt O14757); type: functional;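 note: measured as one member of a kinome-wide kinase profiling panel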
T3 sequence (O14757 whole entry): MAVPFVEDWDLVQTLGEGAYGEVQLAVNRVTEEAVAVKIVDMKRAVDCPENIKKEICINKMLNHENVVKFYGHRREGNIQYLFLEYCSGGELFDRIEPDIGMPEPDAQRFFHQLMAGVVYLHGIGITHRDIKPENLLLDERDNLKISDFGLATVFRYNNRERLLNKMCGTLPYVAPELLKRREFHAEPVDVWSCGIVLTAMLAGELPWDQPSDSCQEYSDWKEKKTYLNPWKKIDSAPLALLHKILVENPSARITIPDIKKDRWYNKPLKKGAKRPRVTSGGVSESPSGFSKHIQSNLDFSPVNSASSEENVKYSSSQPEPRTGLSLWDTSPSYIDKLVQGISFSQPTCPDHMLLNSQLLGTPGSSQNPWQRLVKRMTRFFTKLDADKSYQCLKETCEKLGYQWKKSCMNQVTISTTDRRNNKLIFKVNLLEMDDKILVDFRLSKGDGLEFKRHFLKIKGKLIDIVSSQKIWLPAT

[11] = biological target: Tyrosine-protein kinase ABL1 (Homo sapiens, UniProt P00519); type: functional
[12] = biological target: Vascular endothelial growth factor receptor 2 (Homo sapiens, UniProt P35968); type: functional
[13] = biological target: Dual specificity tyrosine-phosphorylation-regulated kinase 1B (Homo sapiens, UniProt Q9Y463); test: Navigating the Kinome. Panel member name: DYRK1B; type: functional
[14] = biological target: Cyclin-dependent kinase 19 (Homo sapiens, UniProt Q9BWU1); test: Navigating the Kinome. Panel member name: CDC2L6; type: functional
[15] = biological target: Rho-associated protein kinase 1 (Homo sapiens, UniProt Q13464); type: functional;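 note: measured within a broad kinome-wide panel profiling many kinases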
[16] = biological target: Cyclin-dependent kinase 9 (Homo sapiens, UniProt P50750); type: functional;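 note: value from the CDK9 entry of a kinome-spanning kinase panel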
[17] = biological target: cAMP-dependent protein kinase catalytic subunit alpha (Homo sapiens, UniProt P17612); type: functional
[18] = biological target: Macrophage colony-stimulating factor 1 receptor (Homo sapiens, UniProt P07333); type: functional;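 note: value comes from the Navigating the Kinome screening panel, CSF1R member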
[19] = biological target: Dual specificity tyrosine-phosphorylation-regulated kinase 1A (Homo sapiens, UniProt Q13627); type: functional;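 note: measured against DYRK1A as one member of a broad kinome profiling panel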
[20] = biological target: Leukocyte tyrosine kinase receptor (Homo sapiens, UniProt P29376); test: Navigating the Kinome. Panel member name: LTK; type: functional
[21] = biological target: T4, Melanin-concentrating hormone receptor 1 (Homo sapiens, UniProt Q99705); test: Late-stage fluorescence-based counterscreen for antagonists of the G-protein coupled receptor 7 (GPR7): cell-based dose response assay to identify antagonists of the melanin-concentrating hormone receptor 1 (MCHR1) Set 6.; type: functional
[22] = biological target: T5, Neuropeptides B/W receptor type 1 (Homo sapiens, UniProt P48145); test: GPR7 antagonist potency, late-stage follow-up, cell-based, fluorescence, dose response, set 6 (AID 588583); type: functional
T5 sequence (P48145 whole entry): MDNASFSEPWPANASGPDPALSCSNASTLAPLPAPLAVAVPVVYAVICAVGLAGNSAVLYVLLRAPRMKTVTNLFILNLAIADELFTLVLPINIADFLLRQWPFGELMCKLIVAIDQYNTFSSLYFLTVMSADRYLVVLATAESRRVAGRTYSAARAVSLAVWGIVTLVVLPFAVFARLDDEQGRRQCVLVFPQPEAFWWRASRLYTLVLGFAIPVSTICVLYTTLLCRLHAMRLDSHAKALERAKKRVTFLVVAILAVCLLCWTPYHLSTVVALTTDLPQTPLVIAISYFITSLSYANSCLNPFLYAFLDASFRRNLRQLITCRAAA

[23] = biological target: T6, Bcl-2-like protein 10 (Homo sapiens, UniProt Q9HD36); test: displacers of TR3 peptide from Bcl-B, primary screen, selectivity assay for Bfl-1 inhibitor project, biochemical, fluorescence polarization, FITC-TR3 peptide (AID 748);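 note: fluorescence polarization from a fluorescein-labelled TR3 peptide binding purified Bcl-B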
T6 sequence (Q9HD36 whole entry): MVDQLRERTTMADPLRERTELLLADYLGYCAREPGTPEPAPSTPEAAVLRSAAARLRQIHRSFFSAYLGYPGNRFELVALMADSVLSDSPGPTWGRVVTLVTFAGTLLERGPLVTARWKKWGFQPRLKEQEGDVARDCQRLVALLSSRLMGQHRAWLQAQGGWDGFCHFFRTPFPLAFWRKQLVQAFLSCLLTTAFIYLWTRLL

[24] = biological target: T7, DNA dC->dU-editing enzyme APOBEC-3A (Homo sapiens, UniProt P31941); test: SAR analysis of small molecule inhibitors of APOBEC3A DNA Deaminase via a fluorescence-based single-stranded DNA deaminase assay - Set 2.; type: functional; conditions: read-out: IC50_Mean
[25] = biological target: T8, DNA dC->dU-editing enzyme APOBEC-3G (Homo sapiens, UniProt Q9HC16); test: SAR analysis of small molecule inhibitors of APOBEC3G DNA Deaminase via a fluorescence-based single-stranded DNA deaminase assay - Set 2.; type: functional; conditions: read-out: IC50_Mean
[26] = biological target: T8, DNA dC->dU-editing enzyme APOBEC-3G; test: APOBEC3G deaminase inhibitors, SAR follow-up, biochemical, fluorescence, single-stranded DNA substrate (AID 602136); type: functional; conditions: read-out: IC50_Mean
[27] = biological target: T7, DNA dC->dU-editing enzyme APOBEC-3A; test: SAR analysis of small molecule inhibitors of APOBEC3A DNA Deaminase via a fluorescence-based single-stranded DNA deaminase assay.; type: functional; conditions: read-out: IC50_Mean
[28] = biological target: T9, Protein Tat (Human immunodeficiency virus type 1 group M subtype B (isolate HXB2)(HIV-1), UniProt P04608); type: functional;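 note: tat binding to TAR RNA read out by fluorescence polarization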
T9 sequence (P04608 whole entry): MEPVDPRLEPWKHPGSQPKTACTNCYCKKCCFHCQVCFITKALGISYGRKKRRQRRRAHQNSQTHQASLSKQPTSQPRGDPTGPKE

[29] = biological target: T5, Neuropeptides B/W receptor type 1; test: GPR7 antagonist potency, late-stage follow-up, cell-based, fluorescence, dose response, set 5 (AID 588566); type: functional
[30] = biological target: T4, Melanin-concentrating hormone receptor 1; test: Late-stage fluorescence-based counterscreen for antagonists of the G-protein coupled receptor 7 (GPR7): cell-based dose response assay to identify antagonists of the melanin-concentrating hormone receptor 1 (MCHR1) Set 5.; type: functional

T7 sequence (P31941 whole entry): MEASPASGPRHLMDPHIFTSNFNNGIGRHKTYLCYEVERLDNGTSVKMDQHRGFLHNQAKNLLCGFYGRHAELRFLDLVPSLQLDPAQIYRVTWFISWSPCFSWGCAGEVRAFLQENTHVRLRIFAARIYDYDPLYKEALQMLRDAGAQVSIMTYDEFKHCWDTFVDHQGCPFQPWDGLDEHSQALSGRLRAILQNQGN
T8 sequence (Q9HC16 whole entry): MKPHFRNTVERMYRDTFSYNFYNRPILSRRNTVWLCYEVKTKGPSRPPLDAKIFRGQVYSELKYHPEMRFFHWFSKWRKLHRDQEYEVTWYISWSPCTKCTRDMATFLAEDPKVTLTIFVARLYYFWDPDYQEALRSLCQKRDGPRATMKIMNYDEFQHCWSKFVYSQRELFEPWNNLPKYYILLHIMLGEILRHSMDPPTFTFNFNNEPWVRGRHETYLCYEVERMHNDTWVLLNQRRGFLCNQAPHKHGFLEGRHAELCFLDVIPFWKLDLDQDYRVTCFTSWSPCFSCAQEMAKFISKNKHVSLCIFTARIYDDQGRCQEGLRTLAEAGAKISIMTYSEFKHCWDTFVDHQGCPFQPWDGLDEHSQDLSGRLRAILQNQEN
T4 sequence (Q99705 whole entry): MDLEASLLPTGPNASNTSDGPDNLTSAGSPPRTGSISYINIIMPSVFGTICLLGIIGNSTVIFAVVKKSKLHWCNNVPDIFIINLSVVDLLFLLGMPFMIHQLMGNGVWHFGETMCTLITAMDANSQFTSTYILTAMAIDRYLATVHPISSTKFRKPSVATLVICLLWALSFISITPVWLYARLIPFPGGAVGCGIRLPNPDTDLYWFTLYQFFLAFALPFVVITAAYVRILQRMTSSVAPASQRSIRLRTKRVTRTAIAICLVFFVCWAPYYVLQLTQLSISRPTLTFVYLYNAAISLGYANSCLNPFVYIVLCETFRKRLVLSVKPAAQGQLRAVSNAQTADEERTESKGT
Sequence of Platelet-derived growth factor receptor beta (P09619 whole entry): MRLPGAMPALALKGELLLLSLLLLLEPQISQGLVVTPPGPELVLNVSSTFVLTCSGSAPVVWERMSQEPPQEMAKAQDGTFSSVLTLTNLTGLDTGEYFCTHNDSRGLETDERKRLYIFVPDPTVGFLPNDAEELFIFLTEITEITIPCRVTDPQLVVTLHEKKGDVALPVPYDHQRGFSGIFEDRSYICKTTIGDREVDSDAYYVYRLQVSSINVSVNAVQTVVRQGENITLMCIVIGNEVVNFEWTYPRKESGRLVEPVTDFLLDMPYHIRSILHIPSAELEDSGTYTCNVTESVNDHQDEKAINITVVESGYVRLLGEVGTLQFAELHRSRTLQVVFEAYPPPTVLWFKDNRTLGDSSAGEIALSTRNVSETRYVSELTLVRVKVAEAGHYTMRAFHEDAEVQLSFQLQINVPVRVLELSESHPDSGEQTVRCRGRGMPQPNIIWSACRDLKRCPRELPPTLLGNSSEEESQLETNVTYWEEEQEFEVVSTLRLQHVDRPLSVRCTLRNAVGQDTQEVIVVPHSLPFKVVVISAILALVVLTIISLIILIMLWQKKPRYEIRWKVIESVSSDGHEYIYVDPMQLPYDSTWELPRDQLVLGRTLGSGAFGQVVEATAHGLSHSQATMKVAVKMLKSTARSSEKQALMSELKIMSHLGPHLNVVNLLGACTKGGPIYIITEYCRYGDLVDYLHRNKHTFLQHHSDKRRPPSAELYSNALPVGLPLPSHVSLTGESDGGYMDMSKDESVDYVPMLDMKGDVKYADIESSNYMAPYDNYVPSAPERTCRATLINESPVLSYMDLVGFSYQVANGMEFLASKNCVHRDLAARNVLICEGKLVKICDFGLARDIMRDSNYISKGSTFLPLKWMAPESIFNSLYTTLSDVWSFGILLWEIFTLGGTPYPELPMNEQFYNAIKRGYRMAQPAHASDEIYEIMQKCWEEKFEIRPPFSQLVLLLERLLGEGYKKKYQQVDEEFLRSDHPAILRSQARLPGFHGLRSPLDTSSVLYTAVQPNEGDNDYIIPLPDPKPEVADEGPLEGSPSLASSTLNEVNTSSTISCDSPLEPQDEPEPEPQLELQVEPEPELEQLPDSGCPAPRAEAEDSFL
Sequence of Vascular endothelial growth factor receptor 2 (P35968 whole entry): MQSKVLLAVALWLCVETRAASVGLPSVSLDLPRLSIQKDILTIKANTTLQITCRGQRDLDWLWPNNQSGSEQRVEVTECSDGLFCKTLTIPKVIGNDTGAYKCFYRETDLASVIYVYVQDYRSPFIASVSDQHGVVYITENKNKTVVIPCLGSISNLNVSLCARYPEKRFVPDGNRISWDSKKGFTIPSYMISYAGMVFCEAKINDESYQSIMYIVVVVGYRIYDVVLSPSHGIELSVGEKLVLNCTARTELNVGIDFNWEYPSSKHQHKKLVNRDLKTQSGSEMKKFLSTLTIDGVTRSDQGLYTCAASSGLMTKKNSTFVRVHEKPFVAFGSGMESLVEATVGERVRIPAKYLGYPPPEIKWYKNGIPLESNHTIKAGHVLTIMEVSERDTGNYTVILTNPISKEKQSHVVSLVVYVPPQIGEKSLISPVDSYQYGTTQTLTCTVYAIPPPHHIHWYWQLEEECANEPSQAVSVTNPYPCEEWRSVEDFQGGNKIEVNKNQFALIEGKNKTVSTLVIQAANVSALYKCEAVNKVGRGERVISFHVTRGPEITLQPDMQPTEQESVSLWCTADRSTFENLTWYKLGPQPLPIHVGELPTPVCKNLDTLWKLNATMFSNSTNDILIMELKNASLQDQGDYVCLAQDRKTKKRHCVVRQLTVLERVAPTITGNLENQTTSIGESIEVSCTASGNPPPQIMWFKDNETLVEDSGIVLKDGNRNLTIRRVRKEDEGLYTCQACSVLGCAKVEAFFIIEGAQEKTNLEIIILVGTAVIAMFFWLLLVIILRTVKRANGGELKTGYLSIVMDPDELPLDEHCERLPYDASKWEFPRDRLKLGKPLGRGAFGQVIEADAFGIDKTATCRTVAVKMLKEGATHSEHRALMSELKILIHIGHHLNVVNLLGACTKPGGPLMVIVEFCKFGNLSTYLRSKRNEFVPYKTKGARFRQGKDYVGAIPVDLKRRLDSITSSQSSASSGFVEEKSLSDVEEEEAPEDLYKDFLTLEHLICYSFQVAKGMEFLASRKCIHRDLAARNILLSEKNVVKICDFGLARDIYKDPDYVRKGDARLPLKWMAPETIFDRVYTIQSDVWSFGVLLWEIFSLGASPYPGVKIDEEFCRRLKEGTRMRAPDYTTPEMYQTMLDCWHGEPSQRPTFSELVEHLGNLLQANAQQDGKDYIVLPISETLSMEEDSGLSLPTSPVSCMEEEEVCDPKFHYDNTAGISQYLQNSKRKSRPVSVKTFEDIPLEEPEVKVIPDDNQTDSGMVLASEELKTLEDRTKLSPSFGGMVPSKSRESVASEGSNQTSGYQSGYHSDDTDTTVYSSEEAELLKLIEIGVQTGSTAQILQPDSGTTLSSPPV
Sequence of Leukocyte tyrosine kinase receptor (P29376 whole entry): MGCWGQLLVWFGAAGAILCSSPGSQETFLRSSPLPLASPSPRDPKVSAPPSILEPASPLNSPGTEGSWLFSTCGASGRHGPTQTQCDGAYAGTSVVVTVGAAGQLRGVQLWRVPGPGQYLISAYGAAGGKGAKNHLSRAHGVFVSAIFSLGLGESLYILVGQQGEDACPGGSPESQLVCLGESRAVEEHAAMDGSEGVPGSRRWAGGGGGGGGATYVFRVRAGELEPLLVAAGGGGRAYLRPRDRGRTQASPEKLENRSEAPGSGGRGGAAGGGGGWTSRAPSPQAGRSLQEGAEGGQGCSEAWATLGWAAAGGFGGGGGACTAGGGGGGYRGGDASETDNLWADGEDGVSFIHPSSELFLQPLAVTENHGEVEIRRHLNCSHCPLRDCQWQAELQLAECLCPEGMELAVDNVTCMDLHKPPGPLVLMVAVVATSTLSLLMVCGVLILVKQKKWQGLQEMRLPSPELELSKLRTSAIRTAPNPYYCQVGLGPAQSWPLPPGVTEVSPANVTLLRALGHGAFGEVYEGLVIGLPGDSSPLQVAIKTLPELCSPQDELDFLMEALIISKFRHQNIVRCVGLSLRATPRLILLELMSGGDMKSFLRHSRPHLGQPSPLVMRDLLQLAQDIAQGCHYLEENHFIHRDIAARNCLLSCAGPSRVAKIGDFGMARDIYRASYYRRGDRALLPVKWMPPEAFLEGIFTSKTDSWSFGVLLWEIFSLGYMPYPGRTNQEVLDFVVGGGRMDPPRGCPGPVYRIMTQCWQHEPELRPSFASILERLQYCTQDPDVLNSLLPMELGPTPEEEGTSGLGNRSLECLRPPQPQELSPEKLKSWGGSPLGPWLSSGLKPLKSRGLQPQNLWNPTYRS
Sequence of Protein kinase C theta type (Q04759 whole entry): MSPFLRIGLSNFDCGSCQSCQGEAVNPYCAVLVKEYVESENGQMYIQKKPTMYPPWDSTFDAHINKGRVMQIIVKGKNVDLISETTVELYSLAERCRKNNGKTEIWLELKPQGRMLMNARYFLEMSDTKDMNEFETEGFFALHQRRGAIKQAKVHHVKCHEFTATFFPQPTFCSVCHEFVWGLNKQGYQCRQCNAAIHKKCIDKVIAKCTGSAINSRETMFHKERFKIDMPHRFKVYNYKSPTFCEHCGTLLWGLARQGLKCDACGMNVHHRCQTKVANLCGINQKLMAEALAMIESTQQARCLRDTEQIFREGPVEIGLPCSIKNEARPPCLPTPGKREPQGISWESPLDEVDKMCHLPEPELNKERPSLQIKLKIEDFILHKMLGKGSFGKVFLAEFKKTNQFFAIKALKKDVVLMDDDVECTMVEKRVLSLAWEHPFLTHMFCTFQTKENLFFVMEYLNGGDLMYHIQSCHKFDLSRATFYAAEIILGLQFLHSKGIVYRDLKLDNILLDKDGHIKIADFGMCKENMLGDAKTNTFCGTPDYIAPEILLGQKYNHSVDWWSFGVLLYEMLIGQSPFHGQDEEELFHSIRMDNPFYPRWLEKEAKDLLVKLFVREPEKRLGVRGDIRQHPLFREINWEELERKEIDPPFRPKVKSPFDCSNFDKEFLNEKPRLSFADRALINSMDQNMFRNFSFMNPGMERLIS

**Q.** Which EC50 [1] does the source give for `Cc1cc(C)n(C(C)C(C)C(=O)O)n1` (stereo not given) here?
**A.** > 100 µM (inactive)

**Q.** What about the EC50 [2] of the same compound?
**A.** > 100 µM (inactive)

**Q.** And the EC50 [3]?
**A.** > 100 µM (inactive)

**Q.** With `Nc1ccc(-c2cccn3c(=O)[nH]nc23)cc1` as the compound, how does the Ki [4] read?
**A.** > 100 µM (inactive)

**Q.** And the Ki [5]?
**A.** 6.31 µM (active)

**Q.** And the Ki [6]?
**A.** 79.4 µM (active)

**Q.** What about the Ki [7] of the same compound?
**A.** > 63.1 µM (inactive)

**Q.** What about the Ki [8] of the same compound?
**A.** 31.6 µM (active)

**Q.** What about the Ki [9] of the same compound?
**A.** > 79.4 µM (inactive)

**Q.** What about the Ki [10] of the same compound?
**A.** 12.6 µM (active)

**Q.** And the Ki [11]?
**A.** 50.1 µM (active)

**Q.** And the Ki [12]?
**A.** 39.8 µM (active)

**Q.** What about the Ki [13] of the same compound?
**A.** 63.1 µM (active)

**Q.** What about the Ki [14] of the same compound?
**A.** > 100 µM (inactive)

**Q.** And the Ki [15]?
**A.** 12.6 µM (active)

**Q.** And the Ki [16]?
**A.** > 63.1 µM (inactive)

**Q.** And the Ki [17]?
**A.** 50.1 µM (active)

**Q.** And the Ki [18]?
**A.** > 100 µM (inactive)

**Q.** And the Ki [19]?
**A.** > 79.4 µM (inactive)

**Q.** What about the Ki [20] of the same compound?
**A.** 3.16 µM (active)

**Q.** Which IC50 [21] does the source give for `N#CC(c1ccccc1)c1ccnn(Cc2cccc3ccccc23)c1=O` (stereo not given) here?
**A.** > 20 µM (inactive)

**Q.** And the IC50 [22]?
**A.** > 20 µM (inactive)

**Q.** Which IC50 [23] does the source give for `Cc1ccc(C)n1Cc1ccc(C(=O)O)cc1` here?
**A.** 6.93 µM (active)

**Q.** And the IC50 [24]?
**A.** 4.11 µM (active)

**Q.** What about the IC50 [25] of the same compound?
**A.** 1.98 µM (active)

**Q.** And the IC50 [26]?
**A.** 39.3 µM (inactive)

**Q.** What about the IC50 [27] of the same compound?
**A.** 52.6 µM (inactive)

**Q.** And the IC50 [28]?
**A.** 3.45 µM (inconclusive)

**Q.** Which results are given for `COc1ccc(Oc2c(C=O)cnn(Cc3cccc4ccccc34)c2=O)cc1`?
**A.** IC50 [29]: 1.76 µM (active); IC50 [30]: 0.91 µM (active)
